In PubChem BioAssay AID330 (DTP/NCI, 2004):
“And” between values parts separate entries of the source, which are not always exact repeats. Identical values can stand only once. Inconclusive results and toxic doses are left out.

Tested on: P388 leukemia ip, CD2F1 mice, survival T/C
Assay: NCI In Vivo Anticancer Drug Screen. Data for tumor model P388 Leukemia (intraperitoneal) in CD2F1 (CDF1) mice
Conditions: endpoint: median survival time, higher = longer survival
Method in brief: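 Mice carrying the transplanted tumor received test compound or vehicle. Survival was recorded in each group, and the value is the treated-group measurement divided by that of the vehicle-treated control group.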

[1] = dose: 50.0 mg/kg/injection, schedule: Q01DX009 (ip), vehicle: saline
[2] = dose: 100.0 mg/kg/injection, schedule: Q01DX009 (ip), vehicle: saline
[3] = dose: 200.0 mg/kg/injection, schedule: Q01DX009 (ip), vehicle: saline
[4] = dose: 60.0 mg/kg/injection, schedule: Q01DX005 (ip), vehicle: saline with Tween-80
[5] = dose: 120.0 mg/kg/injection, schedule: Q01DX005 (ip), vehicle: saline with Tween-80
[6] = dose: 240.0 mg/kg/injection, schedule: Q01DX005 (ip), vehicle: saline with Tween-80
[7] = dose: 60.0 mg/kg/injection, schedule: Q01DX005 (ip), vehicle: saline
[8] = dose: 120.0 mg/kg/injection, schedule: Q01DX005 (ip), vehicle: saline
[9] = dose: 240.0 mg/kg/injection, schedule: Q01DX005 (ip), vehicle: saline
[10] = dose: 25.0 mg/kg/injection, schedule: Q01DX005 (ip), vehicle: saline with Tween-80
[11] = dose: 50.0 mg/kg/injection, schedule: Q01DX005 (ip), vehicle: saline with Tween-80
[12] = dose: 100.0 mg/kg/injection, schedule: Q01DX005 (ip), vehicle: saline with Tween-80
[13] = dose: 200.0 mg/kg/injection, schedule: Q01DX005 (ip), vehicle: saline with Tween-80
[14] = dose: 50.0 mg/kg/injection, schedule: Q01DX009 (ip), vehicle: Klucel (hydroxypropylcellulose) (HPC)
[15] = dose: 100.0 mg/kg/injection, schedule: Q01DX009 (ip), vehicle: Klucel (hydroxypropylcellulose) (HPC)
[16] = dose: 12.5 mg/kg/injection, schedule: Q01DX009 (ip), vehicle: saline
[17] = dose: 100.0 mg/kg/injection, schedule: Q01DX009 (ip), vehicle: saline with Tween-80
[18] = dose: 200.0 mg/kg/injection, schedule: Q01DX009 (ip), vehicle: saline with Tween-80
[19] = dose: 50.0 mg/kg/injection, schedule: Q01DX005 (ip), vehicle: saline
[20] = dose: 100.0 mg/kg/injection, schedule: Q01DX005 (ip), vehicle: saline
[21] = dose: 200.0 mg/kg/injection, schedule: Q01DX005 (ip), vehicle: saline
[22] = dose: 25.0 mg/kg/injection, schedule: Q04DX002 (ip), vehicle: saline with Tween-80
[23] = dose: 50.0 mg/kg/injection, schedule: Q04DX002 (ip), vehicle: saline with Tween-80
[24] = dose: 100.0 mg/kg/injection, schedule: Q04DX002 (ip), vehicle: saline with Tween-80
[25] = dose: 25.0 mg/kg/injection, schedule: Q01DX009 (ip), vehicle: saline
[26] = dose: 25.0 mg/kg/injection, schedule: Q01DX009 (ip), vehicle: saline with Tween-80

Compound: CO/N=C(\C(O)C(C)O)C(OC)C1Cc2cc3cc(OC4CC(OC(C)=O)C(OC5CC(O)C(OC)C(C)O5)C(C)O4)cc(O)c3c(O)c2C(=O)C1OC1CC(OC2CC(OC3CC(C)(O)C(OC(=O)C(C)C)C(C)O3)C(O)C(C)O2)C(O)C(C)O1 (centres undefined)
- T/C (dose: 0.13 mg/kg/injection, schedule: Q01DX005 (ip), vehicle: water): 116 % of control
- T/C (dose: 0.25 mg/kg/injection, schedule: Q01DX005 (ip), vehicle: water): 116 % of control and 124 % of control
- T/C (dose: 1.0 mg/kg/injection, schedule: Q01DX005 (ip), vehicle: water): 160 % of control
- T/C (dose: 2.0 mg/kg/injection, schedule: Q01DX005 (ip), vehicle: water): 163 % of control

Compound: O=c1[nH]c2cc([N+](=O)[O-])ccc2nc1/C=C(\O)c1ccc([N+](=O)[O-])cc1
- T/C (dose: 60.0 mg/kg/injection, schedule: Q01DX005 (ip), vehicle: Klucel + Tween-80): 87 % of control
- T/C (dose: 120.0 mg/kg/injection, schedule: Q01DX005 (ip), vehicle: Klucel + Tween-80): 86 % of control
- T/C (dose: 240.0 mg/kg/injection, schedule: Q01DX005 (ip), vehicle: Klucel + Tween-80): 90 % of control

Compound: FC(F)(F)c1ccc(Cl)c(NC(=S)SC2CCCCC2)c1
- T/C [1]: 100 % of control
- T/C [2]: 100 % of control
- T/C [3]: 97 % of control

Compound: CC(C)(Sc1cc(Cl)c(Cl)c(Cl)c1)C(=O)OCCN1CCOCC1
- T/C [4]: 101 % of control and 88 % of control
- T/C [5]: 101 % of control
- T/C [6]: 86 % of control and 94 % of control

Compound: CCN(CC)CC(C)(C)C(=O)/C=C/c1ccc(C)cc1
- T/C [7]: 103 % of control
- T/C [8]: 103 % of control
- T/C [9]: 110 % of control

Compound: O=C([CH-]C(=O)C(F)(F)F)c1ccco1.O=C([CH-]C(=O)C(F)(F)F)c1ccco1.O=C([CH-]C(=O)C(F)(F)F)c1ccco1.[Ru+3]
- T/C [4]: 100 % of control
- T/C [5]: 97 % of control
- T/C [6]: 89 % of control

Compound: O=C(NCN1CCCCC1)c1ccccc1
- T/C [10]: 93 % of control and 95 % of control
- T/C [11]: 98 % of control and 101 % of control and 105 % of control
- T/C [12]: 102 % of control and 104 % of control
- T/C [13]: 102 % of control and 113 % of control

Compound: Oc1ccc(C2(c3ccc(O)cc3)CC3CC2C2CCCC32)cc1 (centres undefined)
- T/C [14]: 98 % of control
- T/C [15]: 97 % of control
- T/C (dose: 200.0 mg/kg/injection, schedule: Q01DX009 (ip), vehicle: Klucel (hydroxypropylcellulose) (HPC)): 97 % of control

Compound: CCOC(=O)CC(=O)Nc1sc(CC)cc1C(=O)OCC
- T/C [4]: 100 % of control
- T/C [5]: 94 % of control

Compound: S=C(Nc1ccccc1)Nc1ncccn1
- T/C [14]: 111 % of control
- T/C [15]: 99 % of control

Compound: [Cl][Ni][Cl]
- T/C (dose: 0.78 mg/kg/injection, schedule: Q01DX009 (ip), vehicle: saline): 100 % of control
- T/C (dose: 1.56 mg/kg/injection, schedule: Q01DX009 (ip), vehicle: saline): 103 % of control
- T/C (dose: 3.13 mg/kg/injection, schedule: Q01DX009 (ip), vehicle: saline): 100 % of control
- T/C (dose: 6.25 mg/kg/injection, schedule: Q01DX009 (ip), vehicle: saline): 99 % of control
- T/C [16]: 99 % of control and 101 % of control

Compound: COc1ccc2nonc2c1
- T/C (dose: 100.0 mg/kg/injection, schedule: Q01DX001 (ip), vehicle: saline): 103 % of control
- T/C (dose: 200.0 mg/kg/injection, schedule: Q01DX001 (ip), vehicle: saline): 103 % of control
- T/C (dose: 400.0 mg/kg/injection, schedule: Q01DX001 (ip), vehicle: saline): 105 % of control

Compound: NCCCCC(N)C(=O)O (centres undefined)
- T/C [1]: 104 % of control
- T/C [2]: 100 % of control
- T/C [3]: 94 % of control

Compound: Cc1ccc(O)c(C(=NCCN=C(c2ccccc2)c2cc(C)ccc2O)c2ccccc2)c1.[Cu]
- T/C (dose: 25.0 mg/kg/injection, schedule: Q01DX005 (ip), vehicle: Klucel (hydroxypropylcellulose) (HPC)): 98 % of control
- T/C (dose: 50.0 mg/kg/injection, schedule: Q01DX005 (ip), vehicle: Klucel (hydroxypropylcellulose) (HPC)): 98 % of control
- T/C (dose: 100.0 mg/kg/injection, schedule: Q01DX005 (ip), vehicle: Klucel (hydroxypropylcellulose) (HPC)): 96 % of control
- T/C (dose: 200.0 mg/kg/injection, schedule: Q01DX005 (ip), vehicle: Klucel (hydroxypropylcellulose) (HPC)): 90 % of control

Compound: Nc1nc(-c2ccc(F)cc2)cc(-c2cc(-c3ccc(F)cc3)nc(N)n2)n1
- T/C [7]: 100 % of control
- T/C [8]: 105 % of control
- T/C [9]: 102 % of control

Compound: Nc1cc(Cl)ccc1[N+](=O)[O-]
- T/C [17]: 108 % of control
- T/C [18]: 99 % of control
- T/C (dose: 400.0 mg/kg/injection, schedule: Q01DX009 (ip), vehicle: saline with Tween-80): 89 % of control

Compound: COC1=CCC2=C(CC[C@H]3[C@H]2CCP3C)C1 (some centres undefined)
- T/C [11]: 101 % of control
- T/C [12]: 111 % of control
- T/C [13]: 103 % of control

Compound: COc1ccc(N=Cc2cc3c(cc2Br)OCO3)cc1
- T/C (dose: 25.0 mg/kg/injection, schedule: Q01DX009 (ip), vehicle: other): 97 % of control
- T/C (dose: 50.0 mg/kg/injection, schedule: Q01DX009 (ip), vehicle: other): 96 % of control
- T/C (dose: 100.0 mg/kg/injection, schedule: Q01DX009 (ip), vehicle: other): 94 % of control
- T/C (dose: 200.0 mg/kg/injection, schedule: Q01DX009 (ip), vehicle: other): 100 % of control
- T/C (dose: 400.0 mg/kg/injection, schedule: Q01DX009 (ip), vehicle: other): 100 % of control

Compound: C=CC1C(=O)N(C)[C@H](C(C)(C)C)N1C(=O)c1ccccc1 (some centres undefined)
- T/C [19]: 100 % of control
- T/C [20]: 93 % of control
- T/C [21]: 113 % of control

Compound: CNc1nc(-c2ccc(OC)cc2)c(-c2ccc(OC)cc2)[nH]1
- T/C [22]: 108 % of control and 111 % of control
- T/C [23]: 107 % of control
- T/C [24]: 99 % of control

Compound: N=c1sccn1CC(O)c1ccccc1 (centres undefined)
- T/C (dose: 100.0 mg/kg/injection, schedule: Q01DX001 (ip), vehicle: Klucel (hydroxypropylcellulose) (HPC)): 100 % of control
- T/C (dose: 200.0 mg/kg/injection, schedule: Q01DX001 (ip), vehicle: Klucel (hydroxypropylcellulose) (HPC)): 100 % of control

Compound: O=[N+]([O-])c1cc(NC(=S)SC2CCCCC2)ccc1Cl
- T/C [25]: 107 % of control and 108 % of control
- T/C [1]: 100 % of control and 104 % of control and 93 % of control
- T/C [2]: 102 % of control and 110 % of control and 90 % of control
- T/C [3]: 100 % of control and 104 % of control and 122 % of control

Compound: Cc1cc(C)cc(C(=O)NC(=C(NC(=O)c2cc(C)cc(C)c2)c2ccncc2)c2ccncc2)c1 (mixture of isomers)
- T/C (dose: 12.5 mg/kg/injection, schedule: Q01DX005 (ip), vehicle: saline with Tween-80): 96 % of control
- T/C [10]: 90 % of control
- T/C [11]: 86 % of control and 90 % of control

Compound: CC(N)C(=O)NC(C(=O)O)C(C)C (centres undefined)
- T/C [26]: 102 % of control
- T/C [19]: 93 % of control
- T/C (dose: 50.0 mg/kg/injection, schedule: Q01DX009 (ip), vehicle: saline with Tween-80): 100 % of control
- T/C [20]: 100 % of control
- T/C [17]: 96 % of control
- T/C [21]: 98 % of control
- T/C [18]: 111 % of control

Compound: CSC(=S)N/N=C/c1ccccc1O
- T/C (dose: 6.25 mg/kg/injection, schedule: Q01DX009 (ip), vehicle: saline with Tween-80): 90 % of control
- T/C (dose: 12.5 mg/kg/injection, schedule: Q01DX009 (ip), vehicle: saline with Tween-80): 90 % of control
- T/C [26]: 95 % of control

Compound: Cc1c2ncccc2c(C)c2c1[nH]c1ccccc12
- T/C [22]: 100 % of control
- T/C [23]: 91 % of control
- T/C [24]: 98 % of control
- T/C (dose: 200.0 mg/kg/injection, schedule: Q04DX002 (ip), vehicle: saline with Tween-80): 89 % of control

Compound: NS(=O)(=O)c1ccc(NCc2c3ccccc3nc3cc(Cl)ccc23)cc1
- T/C [4]: 104 % of control
- T/C [5]: 95 % of control
- T/C [6]: 94 % of control

Compound: C(CSC1=NCCN1)CSC1=NCCN1
- T/C [25]: 120 % of control
- T/C [1]: 117 % of control

Compound: COC[N+](C)(C)c1ccc(/C=C/C=O)cc1
- T/C [16]: 114 % of control
- T/C [25]: 109 % of control
- T/C [1]: 118 % of control and 98 % of control

Compound: CC1=NOC(=O)/C1=C/c1ccc2c(c1)OCO2
- T/C [11]: 106 % of control
- T/C [12]: 105 % of control
- T/C [13]: 113 % of control
